± gives the expanded uncertainty stated by the source.
Assay: xn = mol fraction of the nth substance listed
Conditions: Liquid, x1 = 1

C1CCCCC1 [cyclohexane] + CCCCCCCCC
mass density [kg/m3]
Conditions	298.15 K	308.15 K	318.15 K	328.15 K
100 kPa	773.8 ± 0.5	764.4 ± 0.5	754.8 ± 0.6	745.4 ± 0.5
101 kPa	773.8 ± 0.49	764.38 ± 0.5	754.99 ± 0.52	745.55 ± 0.53
2130 kPa	775.5 ± 0.6	766.2 ± 0.6	756.7 ± 0.6	746.6 ± 0.6
4150 kPa	777.2 ± 0.6	767.9 ± 0.7	758.7 ± 0.7	749.6 ± 0.7
6180 kPa	778.8 ± 0.7	769.7 ± 0.7	760.6 ± 0.8	751.6 ± 0.8
8210 kPa	780.4 ± 0.8	771.4 ± 0.8	762.4 ± 0.8	753.6 ± 0.9
10230 kPa	782 ± 0.8	773.1 ± 0.9	764.2 ± 0.9	755.5 ± 0.9
11250 kPa	782.8 ± 0.9	773.9 ± 0.9	765.1 ± 0.9	756.4 ± 1
12260 kPa	783.5 ± 0.9	774.7 ± 0.9	766 ± 1	757.4 ± 1
14290 kPa	785 ± 1	776.4 ± 1	767.7 ± 1	759.2 ± 1.1
16310 kPa	786.5 ± 1	777.9 ± 1.1	769.4 ± 1.1	761 ± 1.1
18340 kPa	788 ± 1.1	779.5 ± 1.1	771.1 ± 1.2	762.8 ± 1.2
20370 kPa	789.4 ± 1.1	781 ± 1.2	772.7 ± 1.2	764.5 ± 1.3
22390 kPa	790.9 ± 1.2	782.5 ± 1.2	774.3 ± 1.3	766.2 ± 1.3
24420 kPa	792.2 ± 1.3	784 ± 1.3	775.8 ± 1.3	767.9 ± 1.4
26450 kPa	793.6 ± 1.3	785.5 ± 1.4	777.3 ± 1.4	769.6 ± 1.4
28470 kPa	794.9 ± 1.4	786.9 ± 1.4	778.8 ± 1.5	771.2 ± 1.5
29490 kPa	795.6 ± 1.4	787.6 ± 1.4	779.6 ± 1.5	772 ± 1.5
30500 kPa	796.1 ± 1.4	788.3 ± 1.5	780.3 ± 1.5	772.7 ± 1.6
32530 kPa	797.5 ± 1.5	789.7 ± 1.5	781.7 ± 1.6	774.3 ± 1.6
34550 kPa	798.7 ± 1.5	791 ± 1.6	783.2 ± 1.6	775.8 ± 1.7
36580 kPa	800 ± 1.6	792.4 ± 1.6	784.6 ± 1.7	777.3 ± 1.7
38600 kPa	801.2 ± 1.6	793.7 ± 1.7	786 ± 1.8	778.8 ± 1.8
39620 kPa	801.7 ± 1.7	794.3 ± 1.7	786.7 ± 1.8	779.4 ± 1.8
